{
  "source": "patent US20250222051A1",
  "about": "“MU[…] ADJUVANT TREATMENT OF TUMOR, AND PREPARATION METHOD AND APPLICATION THEREOF” (Changde Jizhi Biological Technology Co., Ltd, priority 2024, published 2025)",
  "key": {"[1]": {"tested_on": "human ovarian cancer cells (Skov-3)", "details": "Skov-3 transplanted tumor, oxaliplatin 15 mg/kg tail vein once, products 0.45 g/kg intragastric", "from_the_text": "(§1) Experimental animals: BLAB/c female nude mice, 6-7 weeks old, weighing 18-20 g.\n(§2) Subcutaneous tumor cell inoculation in mice: Human lung cancer cells (A549), human ovarian cancer cells (Skov-3) and human cervical cancer epithelial cells (Hela) in logarithmic growth phase are taken and made into cell suspension (1×10^7 cells/mL) with phosphate buffered saline (PBS), each mouse is inoculated with 2×10^6 cells, the inoculation volume is 200 microliters (μL), and then inoculated subcutaneously in the armpit of BLAB/c nude mice. The selected tumor tissues are put into a glass homogenizer, ground with sterile physiological saline, filtered into a single cell suspension through a sieve, and the number of living cells is counted by trypan blue staining. Each nude mouse is inoculated with 200 μL cell suspension (including 1×10^6 cells) under its armpit.\n(§3) Experimental grouping and methods: nude mice with the same tumor size are selected, and the nude mice are weighed and randomly divided into groups. […] The drug concentration and specific grouping are as follows. The model control group is intragastrically administered with 200 μL normal saline once a day, the mice are administered once on the second day after tumor inoculation. […] After 24 hours of the last administration, the tumor mass is taken out, the tumor weight is measured and the tumor inhibition rate is calculated."}, "[2]": {"tested_on": "human cervical cancer epithelial cells (Hela)", "details": "Hela transplanted tumor, oxaliplatin 15 mg/kg tail vein once, products 0.45 g/kg intragastric", "from_the_text": "as §1, §2, §3"}, "[3]": {"tested_on": "Human lung cancer cells (A549)", "details": "A549 transplanted tumor, oxaliplatin 15 mg/kg tail vein once, products 0.45 g/kg intragastric", "from_the_text": "as §1, §2, §3"}, "[4]": {"tested_on": "mouse H22 hepatoma cells", "details": "oxaliplatin 15 mg/kg tail vein once, products 0.45 g/kg intragastric", "method": "The anti-tumor effect of the product of the disclosure on a Hepatoma-22 (H22) mouse model of live cancer is studied.\nPositive control drug: oxaliplatin.\nAnimals and preparation of tumors are as follows. BALB/c male mice are adopted, weighing 18-22 g. The mice are fed in specific-pathogen free (SPF) grade animal house, with temperature of 20-25° C., relative humidity of 40%-70%, 6 mice per cage, illumination time of 12 h, regular and quantitative addition of feed, free drinking water, and daily replacement of padding.\nTransplanted tumor cells: 10^6 mouse H22 hepatoma cells are injected into abdominal cavity for passage, and the hepatoma cells are collected after 7-10 days for subcutaneous inoculation.\nExperimental methods of tumor passage preservation for in vivo tumor inhibition effect evaluation: H22 hepatoma mice are inoculated intraperitoneally and the ascites is taken for passage and preservation.\nTumor inoculation: H22 hepatocellular carcinoma bearing mice on the 10th day of ascites passage are taken, the mice are killed by cervical vertebra removal, the abdominal skin is disinfected, milky white ascites is absorbed with a sterile syringe, and the concentration of tumor cells is adjusted to 1×10^6 cells per milliliter (mL) with normal saline for injection. The right armpit skin of BALB/c mice is disinfected with alcohol cotton balls, 0.2 mL of the tumor cell suspension is inoculated subcutaneously, and the mice are raised routinely.\nAfter 24 hours of the last administration, the mice are sacrificed by cervical dislocation, and the tumor tissues are stripped and weighed. The curative effect is evaluated by tumor weight inhibition rate (%), and analysis of variance (ANOVA) test is used for statistical comparison between groups."}},
  "data": [
    {"smiles": "O=C1[O][Pt]2([NH][C@@H]3CCCC[C@H]3[NH]2)[O]C1=O", "note": "[Oxaliplatin, oxaliplatin]", "values": [
      {"measurement": "Tumor weight", "setting": "[1]; X ± SD", "value": "1.78 ± 0.33", "unit": "g"},
      {"measurement": "Inhibition rate (%)", "setting": "[1]", "value": 45.25, "unit": "%"},
      {"measurement": "Tumor weight", "setting": "[2]; X ± SD", "value": "1.78 ± 0.33", "unit": "g"},
      {"measurement": "Inhibition rate (%)", "setting": "[2]", "value": 45.25, "unit": "%"},
      {"measurement": "Tumor weight", "setting": "[3]; X ± SD", "value": "0.98 ± 0.32", "unit": "g"},
      {"measurement": "Inhibition rate (%)", "setting": "[3]", "value": 58.25, "unit": "%"},
      {"measurement": "Tumor weight", "setting": "[4]; H22 subcutaneous tumor, 24 hours after last administration", "value": "1.14 ± 0.29", "unit": "g"},
      {"measurement": "Inhibition rate (%)", "setting": "[4]; H22 tumor weight inhibition rate", "value": 50.22, "unit": "%"},
      {"measurement": "Weight Start", "setting": "[4]; body weight of H22 tumor-bearing mice at start", "value": "20.09 ± 1.08"}
    ]}
  ]
}
